Test results reported in paper PMC8773529 (Cancers, 2022).

Key:
Format in all cases: cell-based, human
LNCaP cells [1] = experiment: MTT assay, LNCaP; settings: for IC50: MTT, 72 h, mean ± SD; for SI LNCaP: SI = IC50 normal cell line (RWPE-1)/IC50 cancer cell line
Experimental: (§1) MTT analysis was performed as described previously.
(§2) Cell absorbance results were substituted into the formula for the relative MTT level (%). It allows to calculate the viability of cells exposed to the test compounds. Cell viability is the percentage of MTT reduction in cells to which the test compounds were added compared to the control sample, where only the medium was added to the cells.
(§3) The relative MTT level was calculated using the formula: life time [100%] = A/B × 100% where: A—the test sample absorbance; B—the control sample absorbance.
(§4) The statistical analysis was performed using the Statistica 13.0 (StatSoft, Inc, Tulsa, OK, USA) program. Comparison between studied groups was performed by the paired Student’s t-test. Results were expressed as means ± SD, and considered statistically significant at p < 0.05. All data were calculated from 3 separate experiments. IC50 values were calculated using GraphPad Prism 6 software (GraphPad Software, San Diego, CA, USA).

DU-145 cells [2] = experiment: MTT assay, DU-145; settings: for IC50: MTT, 72 h, mean ± SD; for SI DU-145: SI = IC50 normal cell line (RWPE-1)/IC50 cancer cell line
Experimental: as §1, §2, §3, §4

PC3 cells = experiment: MTT assay, PC3; settings: SI = IC50 normal cell line (RWPE-1)/IC50 cancer cell line
Experimental: as §1, §2, §3, §4

RWPE-1 cells [3] = experiment: MTT assay, normal RWPE-1; settings: mean ± SD
Experimental: as §1, §2, §3, §4

LNCaP cells [4] = experiment: LDH test, LNCaP; settings: 72 h; tested at 10-60 µM, concentration of quoted value not stated
Experimental: (§5) Lactate dehydrogenase (LDH) as a cytosolic enzyme determined in culture medium is a marker of cell death. The LDH activity determination was performed after 72 h incubation of cells (1 × 10^4 cells per well) in 96-well plates with the selected conjugates of gradually decreasing concentration according to the procedure mentioned at earlier study by Chrzanowska et al.. The cytotoxicity of test compounds was expressed as % of LDH released from test cells. This parameter is calculated using the formula: cytotoxicity = [A test sample − A “low control”]/[A “high control” − A “low control”] where: A—absorbance, “Low control”—cells in DMEM medium with 2% FBS, “High control”—cells in DMEM with 2% FBS with 1% Triton X-100.

DU145 cells = experiment: LDH test, DU145; settings: 72 h; tested at 10-60 µM, concentration of quoted value not stated
Experimental: as §5

RWPE-1 cells [5] = experiment: Apoptosis detection (Annexin V/7-AAD flow cytometry), RWPE-1; settings: IC50 concentration, 72 h, % of cells
Experimental: (§6) Then, a commercially available kit (FITC:Annexin V Apoptosis Detection Kit I; BD Biosciences Pharmingen. San Jose, CA, USA) was used. The medium was removed from the plates and approximately 1 mL of PBS was added to the wells for rinsing, followed by 0.7 mL of trypsin, and left for 3 min. Then, the plate wells were washed twice with 0.5 mL PBS with 2% FBS and next the entire content of the given walls was transferred to test tubes. The tubes were centrifuged for 7 min in a centrifuge at 1700 rpm. The supernatant solution was removed. […] After this time, 0.4 mL of PBS with FBS was added to the tubes and mixed again. […] Annexin V-reactive cells, but not 7-AAD-reactive cells were in the early stage of apoptosis, while cells reactive with both reagents were in late-stage apoptosis or were dead.

LNCaP cells [6] = experiment: Apoptosis detection (Annexin V/7-AAD flow cytometry), LNCaP; settings: IC50 concentration, 72 h, % of cells
Experimental: as §6

DU-145 cells [7] = experiment: Apoptosis detection (Annexin V/7-AAD flow cytometry), DU-145; settings: IC50 concentration, 72 h, % of cells
Experimental: as §6

[8] = system: IL-6 release by LNCaP cells; experiment: Interleukin-6 ELISA, LNCaP; settings: IC50 concentration, 72 h; control 40.1 pg/mL
Experimental: (§7) The sandwich ELISA assay is used to confirm the presence of interleukin 6 (IL-6) in the test cell line supernatant. Interleukin IL-6 ELISA kit was purchased from Diaclone SAS (Besancon Cedex, France). […] Before starting the test, a standard curve was prepared. An amount of 100 μL of test supernatant samples from the RWPE-1, LNCaP and DU145 cell lines incubated with the tested compounds, control solutions and blank were added to the plate’s wells. Then, 50 µL of diluted biotinylated anti-human interleukin-6 antibody was added to each well. The prepared plate was incubated at room temperature for one hour. At the end of this time, the solution in the plate wells was decanted and rinsed with the washing solution. After repeating the procedure three times, 100 μL solution of streptavidin covalently bound to horseradish peroxidase (HRP) was added to the wells. Then, the plates were incubated for 30 min. The next step was to remove the solution and rinse the plates three times. After adding 100 μL of tetramethylbenzidine (TMB) solution to each well, the plates were incubated for 15 min in the dark. In order to stop the reaction, 100 μL of H2SO4 solution were added. The absorbance of the tested samples was read using a spectrophotometer at 450 nm (Microplate Spectrophotometer Thermo Scientific™ Multiskan™ GO).

[9] = system: IL-6 release by DU145 cells; experiment: Interleukin-6 ELISA, DU145; settings: IC50 concentration, 72 h; control 134.475 pg/mL
Experimental: as §7

| IC50 (LNCaP cells [1]; Homo sapiens, LNCaP) [nM] | IC50 (DU-145 cells [2]; Homo sapiens, DU-145, 72 h) [nM] | Structure (SMILES) | IC50 (LNCaP cells [1]) [nM] | SI LNCaP (LNCaP cells [1]) | IC50 (DU-145 cells [2]) [nM] | SI DU-145 (DU-145 cells [2]) | SI PC3 (PC3 cells) | IC50 (RWPE-1 cells [3]; 72 h) [nM] | IC50 (RWPE-1 cells [3]; Homo sapiens, RWPE-1, 72 h) [nM] | released lactate dehydrogenase, LNCaP (LNCaP cells [4]) | released lactate dehydrogenase, DU145 (DU145 cells) | Early Apoptosis (%), RWPE-1 (RWPE-1 cells [5]) [%] | Late apoptosis (%), RWPE-1 (RWPE-1 cells [5]) [%] | Early Apoptosis (%), LNCaP (LNCaP cells [6]) [%] | Late apoptosis (%), LNCaP (LNCaP cells [6]) | Late apoptosis (%), LNCaP (LNCaP cells [6]; listed as CP) [%] | Early Apoptosis (%), DU145 (DU-145 cells [7]) [%] | Late apoptosis (%), DU145 (DU-145 cells [7]) [%] | IL-6 concentration, LNCaP [8] [pg/mL] | IL-6 concentration, DU145 [9] [pg/mL] |
| --- | --- | --- | --- | --- | --- | --- | --- | --- | --- | --- | --- | --- | --- | --- | --- | --- | --- | --- | --- | --- |
|  |  | N.N.[Cl][Pt][Cl] [Cisplatin] | 1780 ± 740 | 1.5 | 1360 ± 690 | 2 | 1.78 | 2690 ± 1100 |  |  |  |  |  |  |  |  |  |  |  |  |
| 480 ± 210 | 590 ± 140 | COc1cccc2c1C(=O)c1c(O)c3c(c(O)c1C2=O)C[C@@](O)(C(=O)CO)C[C@@H]3O[C@H]1C[C@H](N)[C@H](O)[C@H](C)O1 [Doxorubicin] |  | 1.3 |  | 1.1 | 2 |  | 650 ± 100 |  |  |  |  |  |  |  |  |  |  |  |
| > 70000 | > 70000 | O=C(O)c1cn(C2CC2)c2cc(N3CCNCC3)c(F)cc2c1=O [Ciprofloxacin] | 71200 ± 3800 |  | 70500 ± 3600 |  |  |  | 72100 ± 5200 | 18.5–24.6% | 18.5–24.6% | 2.9 | 1.4 | 26.8 | did not affect the late apoptosis | 0.7 | 20.8 | 0.3 | 28.7 | 119.72 |
